According to paper PMC3344384 (Chemistry & biology, 2011):
Values joined by “and” are separate entries in the source; they are usually repeats but may differ in a detail not shown here. Identical values can stand only once.

How the values were obtained:
Ub-PCNA in HEK293T cells = assay: Western blot of Ub-PCNA level in cells; type: cell-based, human
[1] = test system: Ub-FANCD2 in HEK293T cells; assay: Western blot of Ub-FANCD2 level in cells; type: cell-based, human
caspase-6 = target: T1, caspase-6 (Homo sapiens, UniProt P55212); assay: cysteine protease selectivity, caspase-6; type: biochemical
T1 sequence (P55212 24-179 limits assumed): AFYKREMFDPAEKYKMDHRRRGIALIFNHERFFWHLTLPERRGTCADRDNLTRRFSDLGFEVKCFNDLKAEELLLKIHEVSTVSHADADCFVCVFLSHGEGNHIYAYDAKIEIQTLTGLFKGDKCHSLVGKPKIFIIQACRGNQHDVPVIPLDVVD
T1 sequence (P55212 194-293 limits assumed): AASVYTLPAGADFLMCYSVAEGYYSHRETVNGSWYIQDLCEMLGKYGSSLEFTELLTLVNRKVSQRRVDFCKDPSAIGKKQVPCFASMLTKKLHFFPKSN

USP5 = target: T2, USP5 (Homo sapiens, UniProt P45974); assay: K63-linked diubiquitin cleavage assay, USP5
T2 sequence (P45974 1-858): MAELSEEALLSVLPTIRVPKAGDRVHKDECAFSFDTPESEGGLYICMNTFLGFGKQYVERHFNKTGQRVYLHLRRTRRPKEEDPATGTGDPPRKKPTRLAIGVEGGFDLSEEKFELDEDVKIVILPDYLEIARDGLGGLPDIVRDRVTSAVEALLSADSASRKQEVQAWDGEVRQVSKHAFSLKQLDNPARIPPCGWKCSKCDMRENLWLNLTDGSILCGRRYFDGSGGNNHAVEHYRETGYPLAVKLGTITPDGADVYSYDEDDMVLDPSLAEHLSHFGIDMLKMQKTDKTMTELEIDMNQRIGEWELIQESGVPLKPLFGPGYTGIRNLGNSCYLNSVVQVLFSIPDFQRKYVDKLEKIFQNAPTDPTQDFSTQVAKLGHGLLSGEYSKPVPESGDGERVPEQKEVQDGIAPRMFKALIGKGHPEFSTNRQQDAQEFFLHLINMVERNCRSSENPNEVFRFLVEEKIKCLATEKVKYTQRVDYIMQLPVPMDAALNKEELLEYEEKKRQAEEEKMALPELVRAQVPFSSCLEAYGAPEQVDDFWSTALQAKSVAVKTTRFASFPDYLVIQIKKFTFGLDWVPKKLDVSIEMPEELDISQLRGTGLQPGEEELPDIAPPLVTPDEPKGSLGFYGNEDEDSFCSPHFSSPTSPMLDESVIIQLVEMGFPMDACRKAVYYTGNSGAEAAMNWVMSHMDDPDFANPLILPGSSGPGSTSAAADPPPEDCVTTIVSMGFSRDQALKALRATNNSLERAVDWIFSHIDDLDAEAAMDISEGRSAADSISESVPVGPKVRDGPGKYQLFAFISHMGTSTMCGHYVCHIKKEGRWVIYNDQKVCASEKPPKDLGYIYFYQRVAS

caspase-1 = target: T3, caspase-1 (Homo sapiens, UniProt P29466); assay: cysteine protease selectivity, caspase-1; type: biochemical
T3 sequence (P29466 120-297 limits assumed): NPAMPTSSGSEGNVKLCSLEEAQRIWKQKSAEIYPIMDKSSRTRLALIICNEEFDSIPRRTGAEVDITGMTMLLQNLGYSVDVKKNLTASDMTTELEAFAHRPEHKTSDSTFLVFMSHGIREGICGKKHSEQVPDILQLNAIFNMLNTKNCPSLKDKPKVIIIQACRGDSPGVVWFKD
T3 sequence (P29466 317-404 limits assumed): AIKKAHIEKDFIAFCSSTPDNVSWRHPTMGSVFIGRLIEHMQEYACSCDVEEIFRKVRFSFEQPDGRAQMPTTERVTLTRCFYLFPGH

USP46/UAF1 = USP46/UAF1 (Homo sapiens, UniProt P62068); assay: K63-linked diubiquitin cleavage assay, USP46/UAF1; type: biochemical
Sequence of USP46/UAF1 (P62068 whole entry): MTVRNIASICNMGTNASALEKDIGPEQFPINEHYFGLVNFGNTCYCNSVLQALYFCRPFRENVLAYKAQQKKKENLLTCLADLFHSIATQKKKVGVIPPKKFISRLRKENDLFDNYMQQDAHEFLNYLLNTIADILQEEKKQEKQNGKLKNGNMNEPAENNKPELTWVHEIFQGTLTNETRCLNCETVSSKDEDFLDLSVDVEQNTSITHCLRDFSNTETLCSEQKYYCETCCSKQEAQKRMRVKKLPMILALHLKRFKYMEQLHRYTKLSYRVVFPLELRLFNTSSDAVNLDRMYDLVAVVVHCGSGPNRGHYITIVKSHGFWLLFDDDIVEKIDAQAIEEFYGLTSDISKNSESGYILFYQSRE
Sequence of USP46/UAF1 (Q8TAF3 whole entry partner): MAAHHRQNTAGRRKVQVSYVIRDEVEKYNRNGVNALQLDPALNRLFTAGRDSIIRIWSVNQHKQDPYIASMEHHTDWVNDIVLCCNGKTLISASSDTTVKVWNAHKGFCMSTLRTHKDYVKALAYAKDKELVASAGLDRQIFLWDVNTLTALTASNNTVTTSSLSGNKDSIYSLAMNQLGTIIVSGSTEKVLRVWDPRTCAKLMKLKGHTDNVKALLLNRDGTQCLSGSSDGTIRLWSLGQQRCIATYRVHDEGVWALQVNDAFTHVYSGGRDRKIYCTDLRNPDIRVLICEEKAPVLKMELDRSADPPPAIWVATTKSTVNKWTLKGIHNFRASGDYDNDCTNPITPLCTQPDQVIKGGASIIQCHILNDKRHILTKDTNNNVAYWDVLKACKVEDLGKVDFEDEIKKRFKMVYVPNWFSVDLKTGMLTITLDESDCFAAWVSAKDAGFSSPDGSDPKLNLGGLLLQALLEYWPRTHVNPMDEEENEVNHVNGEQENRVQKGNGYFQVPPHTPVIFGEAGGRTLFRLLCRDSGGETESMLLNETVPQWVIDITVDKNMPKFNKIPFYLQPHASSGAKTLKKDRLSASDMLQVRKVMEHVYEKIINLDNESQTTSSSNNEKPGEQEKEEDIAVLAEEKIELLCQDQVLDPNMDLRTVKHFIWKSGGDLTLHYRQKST

papain = target: T4, papain (Carica papaya, UniProt P00784); assay: cysteine protease selectivity, papain; type: biochemical
T4 sequence (P00784 134-345): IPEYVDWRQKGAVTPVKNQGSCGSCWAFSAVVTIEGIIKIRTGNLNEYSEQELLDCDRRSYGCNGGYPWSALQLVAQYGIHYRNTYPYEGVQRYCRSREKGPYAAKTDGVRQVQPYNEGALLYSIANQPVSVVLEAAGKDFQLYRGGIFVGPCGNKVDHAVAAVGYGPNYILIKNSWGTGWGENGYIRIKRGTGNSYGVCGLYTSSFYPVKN

USP1/UAF1 [2] = target: USP1/UAF1 (Homo sapiens, UniProt O94782); assay: gel-based K63-linked diubiquitin cleavage assay, USP1/UAF1; type: biochemical; details: IC50 USP1/UAF1, K63-linked diubiquitin substrate; NI = no significant inhibition at highest inhibitor concentration of 114 μM
Sequence of USP1/UAF1 (Homo sapiens, UniProt O94782) (O94782 whole entry): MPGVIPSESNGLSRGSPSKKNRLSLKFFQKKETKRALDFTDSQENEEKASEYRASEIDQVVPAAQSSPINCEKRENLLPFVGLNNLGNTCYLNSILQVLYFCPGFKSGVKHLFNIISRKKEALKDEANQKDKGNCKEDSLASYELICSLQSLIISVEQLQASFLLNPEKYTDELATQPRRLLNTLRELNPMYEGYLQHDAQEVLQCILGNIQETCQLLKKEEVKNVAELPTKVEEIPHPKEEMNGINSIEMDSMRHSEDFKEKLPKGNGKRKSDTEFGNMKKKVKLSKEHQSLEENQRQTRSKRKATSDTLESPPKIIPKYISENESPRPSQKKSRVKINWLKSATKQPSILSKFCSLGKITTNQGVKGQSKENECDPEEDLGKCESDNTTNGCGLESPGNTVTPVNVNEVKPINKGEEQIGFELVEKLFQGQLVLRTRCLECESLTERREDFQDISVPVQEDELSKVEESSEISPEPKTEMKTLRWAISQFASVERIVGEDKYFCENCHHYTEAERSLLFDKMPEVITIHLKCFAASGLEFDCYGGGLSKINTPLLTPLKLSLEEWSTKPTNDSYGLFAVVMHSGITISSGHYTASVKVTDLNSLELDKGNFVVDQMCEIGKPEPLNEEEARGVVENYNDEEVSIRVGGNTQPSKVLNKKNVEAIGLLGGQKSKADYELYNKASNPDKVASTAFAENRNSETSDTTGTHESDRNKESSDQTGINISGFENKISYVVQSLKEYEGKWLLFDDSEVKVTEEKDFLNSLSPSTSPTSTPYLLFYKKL
Sequence of USP1/UAF1 (Homo sapiens, UniProt O94782) (Q8TAF3 whole entry, further chain): as the sequence (Q8TAF3 whole entry partner) above

USP1/UAF1 [3] = target: USP1/UAF1 (Homo sapiens, UniProt O94782+Q8TAF3); assay: reversibility of inhibition by rapid dilution; details: incubation at 10 times IC50, 100-fold rapid dilution
Sequence of USP1/UAF1 (Homo sapiens, UniProt O94782+Q8TAF3) (O94782 whole entry): as the sequence (O94782 whole entry) above
Sequence of USP1/UAF1 (Homo sapiens, UniProt O94782+Q8TAF3) (Q8TAF3 whole entry): as the sequence (Q8TAF3 whole entry partner) above

caspase-3 = target: T5, caspase-3 (Homo sapiens, UniProt P42574); assay: cysteine protease selectivity, caspase-3; type: biochemical
T5 sequence (P42574 29-175 limits assumed): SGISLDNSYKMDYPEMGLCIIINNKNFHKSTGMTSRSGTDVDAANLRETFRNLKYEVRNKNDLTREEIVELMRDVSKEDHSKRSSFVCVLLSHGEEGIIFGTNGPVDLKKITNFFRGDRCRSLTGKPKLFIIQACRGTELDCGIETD
T5 sequence (P42574 176-277 limits assumed): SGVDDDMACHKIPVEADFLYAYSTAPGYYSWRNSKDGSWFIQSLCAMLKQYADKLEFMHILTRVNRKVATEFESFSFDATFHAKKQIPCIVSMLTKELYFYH

Row | SMILES | monoubiquitination of PCNA, single agent (Ub-PCNA in HEK293T cells) | percentage of FANCD2 monoubiquitinated [1] | IC50 (caspase-6) [µM] | IC50 (USP5) [µM] | IC50 (caspase-1) [µM] | IC50 (USP46/UAF1) [µM] | IC50 (papain) [µM] | IC50 (USP1/UAF1 [2]) | reversibility of inhibition (USP1/UAF1 [3]) | IC50 (caspase-3) [µM]
1 | N.N.[Cl][Pt][Cl] [Cisplatin, cisplatin] | a small, but significant, percent of Ub-PCNA was detected | approximately 25% |  |  |  |  |  |  |  | 
2 | CC(=O)c1c(O)c(C)c(O)c(Cc2c(O)c3c(c(C(=O)/C=C/c4ccccc4)c2O)OC(C)(C)C=C3)c1O [Rottlerin, rottlerin] |  |  | 5 to 45 | > 114 | 5 to 45 | 15 ± 1 | 5 to 45 | ≤ 8 µM and 6 to 34 µM | irreversible inhibitor | 5 to 45
